One assay concerns Huh-7. Kind of assay: Cytotoxicity against human HuH7 cells by MTT assay. In general terms: Tetrazolium dyes change colour on reduction, which living cells bring about.
Assay [1] relates to HUVEC. Kind of assay: cells. The settings on record: Homo sapiens, 72 h.
Description: (§1) Antiproliferative activity against HUVEC after 72 hrs by MTT assay
The subject of a further assay is HepG2. Kind of assay: Cytotoxicity against human HepG2 cells by MTT assay.
The target in assay [2] is Vascular endothelial growth factor receptor 2 (Homo sapiens) (UniProt P35968). Kind of assay: Inhibition of VEGFR-2 (unknown origin) at 10 uM after 1 hr by luminescence assay.
Assay [3] deals with T1, Bifunctional epoxide hydrolase 2 (Homo sapiens, UniProt P34913).
T1 sequence (P34913 whole entry): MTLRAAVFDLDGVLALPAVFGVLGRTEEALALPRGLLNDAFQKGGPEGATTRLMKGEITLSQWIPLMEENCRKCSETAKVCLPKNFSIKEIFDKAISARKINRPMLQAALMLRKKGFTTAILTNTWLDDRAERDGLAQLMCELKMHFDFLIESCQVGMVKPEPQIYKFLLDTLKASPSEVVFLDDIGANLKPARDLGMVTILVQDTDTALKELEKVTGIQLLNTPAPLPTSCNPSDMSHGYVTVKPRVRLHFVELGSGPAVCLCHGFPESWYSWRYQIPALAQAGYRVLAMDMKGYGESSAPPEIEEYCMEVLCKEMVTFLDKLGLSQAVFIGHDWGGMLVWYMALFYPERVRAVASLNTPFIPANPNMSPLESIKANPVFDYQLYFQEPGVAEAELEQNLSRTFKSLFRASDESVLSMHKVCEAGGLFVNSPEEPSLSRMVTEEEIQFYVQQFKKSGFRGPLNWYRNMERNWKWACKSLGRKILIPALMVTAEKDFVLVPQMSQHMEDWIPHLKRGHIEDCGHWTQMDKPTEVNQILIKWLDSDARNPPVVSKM
Kind of assay: Inhibition of human recombinant soluble epoxide hydrolase assessed as cyano(6-methoxy-naphthalen-2-yl)methyl trans-[(3-phenyloxyran-2-yl)methyl] carbonate conversion to 6-methoxy-2-naphthaldehyde preincubated for 5 mins prior to substrate addition by fluorescence assay.

The target of assay [4] is RAF proto-oncogene serine/threonine-protein kinase (Homo sapiens, UniProt P04049). Kind of assay: Inhibition of full length recombinant c-RAF (unknown origin) using MEK1 as substrate after 1 hr by luminescence assay.
Assay [5] addresses Receptor-type tyrosine-protein kinase FLT3 (Homo sapiens) (UniProt P36888). Kind of assay: Inhibition of recombinant FLT-3 (unknown origin) at 10 uM.
Assay [6] deals with Vascular endothelial growth factor receptor 2 (Homo sapiens) (UniProt P35968). Kind of assay: Inhibition of recombinant KDR (unknown origin) at 10 uM.
Assay [7] concerns the target T2, 3-phosphoinositide-dependent protein kinase 1 (Homo sapiens) (UniProt O15530).
T2 sequence (whole entry): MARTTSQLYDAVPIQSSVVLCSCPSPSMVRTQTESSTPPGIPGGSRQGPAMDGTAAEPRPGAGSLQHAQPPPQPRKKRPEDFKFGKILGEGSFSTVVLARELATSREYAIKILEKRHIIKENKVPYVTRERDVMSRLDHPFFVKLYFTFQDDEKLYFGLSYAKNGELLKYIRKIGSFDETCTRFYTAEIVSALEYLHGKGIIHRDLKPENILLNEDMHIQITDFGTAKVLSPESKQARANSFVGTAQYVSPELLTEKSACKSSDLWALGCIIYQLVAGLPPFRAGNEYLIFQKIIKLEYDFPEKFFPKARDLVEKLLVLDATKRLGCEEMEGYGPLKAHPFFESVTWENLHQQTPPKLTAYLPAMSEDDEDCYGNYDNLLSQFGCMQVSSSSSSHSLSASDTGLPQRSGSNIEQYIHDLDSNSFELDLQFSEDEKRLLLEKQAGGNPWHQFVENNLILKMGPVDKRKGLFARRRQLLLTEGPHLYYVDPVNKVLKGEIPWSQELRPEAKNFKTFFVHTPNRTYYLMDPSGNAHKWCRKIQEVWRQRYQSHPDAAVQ
Kind of assay: Inhibition of recombinant PDPK-1 (unknown origin) at 10 uM.

Assay [8] has as its target Tyrosine-protein kinase ABL2 (Homo sapiens) (UniProt P42684). Kind of assay: Inhibition of recombinant ABL-2 (unknown origin) at 10 uM.
Assay [9] has as its target Vascular endothelial growth factor receptor 1 (Homo sapiens) (UniProt P17948). Kind of assay: Inhibition of recombinant FLT-1 (unknown origin) at 10 uM.
Assay [10] concerns HUVEC.
Description: as §1
In assay [11] the target is Hepatocyte growth factor receptor (Homo sapiens) (UniProt P08581). The settings on record: at 10 µM.
Description: Inhibition of recombinant MET (unknown origin) at 10 uM
The target of assay [12] is Glycogen synthase kinase-3 alpha (Homo sapiens) (UniProt P49840). Kind of assay: Inhibition of recombinant GSK3alpha (unknown origin) at 10 uM.
In assay [13] the target is Fibroblast growth factor receptor 2 (Homo sapiens) (UniProt P21802). Kind of assay: Inhibition of recombinant FGFR-2 (unknown origin) at 10 uM.
In assay [14] the target is Platelet-derived growth factor receptor beta (Homo sapiens) (UniProt P09619). Kind of assay: Inhibition of recombinant PDGFRbeta (unknown origin) at 10 uM.
Assay [15] concerns the target Platelet-derived growth factor receptor alpha (Homo sapiens) (UniProt P16234). Kind of assay: Inhibition of recombinant PDGFRalpha (unknown origin) at 10 uM.
The target in assay [16] is Serine/threonine-protein kinase B-raf (Homo sapiens, UniProt P15056, V600E). Kind of assay: Inhibition of B-RAF V600E mutant (unknown origin) using MEK1 as substrate.

Activity calls are given as the source filed them. The rule behind the calls is not given here. Bounds are passed on as bounds.

Vascular endothelial growth factor receptor 2 (Homo sapiens), sequence (P35968 whole entry): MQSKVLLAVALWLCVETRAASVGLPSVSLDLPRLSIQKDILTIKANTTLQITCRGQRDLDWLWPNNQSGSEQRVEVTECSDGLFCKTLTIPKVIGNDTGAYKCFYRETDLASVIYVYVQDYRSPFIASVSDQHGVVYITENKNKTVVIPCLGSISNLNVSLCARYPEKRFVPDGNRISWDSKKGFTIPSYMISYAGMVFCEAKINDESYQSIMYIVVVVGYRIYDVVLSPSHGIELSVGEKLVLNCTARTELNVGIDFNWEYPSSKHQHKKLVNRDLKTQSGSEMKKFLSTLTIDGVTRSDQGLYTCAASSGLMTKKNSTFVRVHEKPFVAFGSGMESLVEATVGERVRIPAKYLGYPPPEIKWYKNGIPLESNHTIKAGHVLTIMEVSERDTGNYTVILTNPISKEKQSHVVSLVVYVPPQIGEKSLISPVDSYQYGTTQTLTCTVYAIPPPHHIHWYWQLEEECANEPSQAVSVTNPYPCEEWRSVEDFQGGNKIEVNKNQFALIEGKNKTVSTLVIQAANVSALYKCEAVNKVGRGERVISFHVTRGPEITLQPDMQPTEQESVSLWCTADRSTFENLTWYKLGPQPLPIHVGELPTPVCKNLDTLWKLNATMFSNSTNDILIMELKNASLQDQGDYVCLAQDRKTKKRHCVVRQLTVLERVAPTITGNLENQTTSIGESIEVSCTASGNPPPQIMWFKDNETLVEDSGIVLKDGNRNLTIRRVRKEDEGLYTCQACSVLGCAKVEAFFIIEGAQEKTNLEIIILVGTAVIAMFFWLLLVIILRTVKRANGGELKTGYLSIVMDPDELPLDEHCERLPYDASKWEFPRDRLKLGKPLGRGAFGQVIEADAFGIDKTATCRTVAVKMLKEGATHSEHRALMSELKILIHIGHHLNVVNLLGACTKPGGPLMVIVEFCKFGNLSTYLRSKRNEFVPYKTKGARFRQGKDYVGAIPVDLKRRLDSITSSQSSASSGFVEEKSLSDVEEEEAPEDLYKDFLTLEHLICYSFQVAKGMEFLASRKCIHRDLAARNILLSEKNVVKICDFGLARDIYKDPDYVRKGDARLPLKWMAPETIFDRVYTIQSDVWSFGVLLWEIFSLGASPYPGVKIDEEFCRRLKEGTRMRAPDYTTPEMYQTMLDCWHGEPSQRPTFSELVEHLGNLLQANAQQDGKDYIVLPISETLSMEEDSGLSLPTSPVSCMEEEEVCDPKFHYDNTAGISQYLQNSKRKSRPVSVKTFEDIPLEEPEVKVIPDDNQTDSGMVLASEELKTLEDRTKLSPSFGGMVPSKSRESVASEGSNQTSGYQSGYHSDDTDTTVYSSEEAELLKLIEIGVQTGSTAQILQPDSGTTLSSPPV
RAF proto-oncogene serine/threonine-protein kinase, sequence (P04049 whole entry): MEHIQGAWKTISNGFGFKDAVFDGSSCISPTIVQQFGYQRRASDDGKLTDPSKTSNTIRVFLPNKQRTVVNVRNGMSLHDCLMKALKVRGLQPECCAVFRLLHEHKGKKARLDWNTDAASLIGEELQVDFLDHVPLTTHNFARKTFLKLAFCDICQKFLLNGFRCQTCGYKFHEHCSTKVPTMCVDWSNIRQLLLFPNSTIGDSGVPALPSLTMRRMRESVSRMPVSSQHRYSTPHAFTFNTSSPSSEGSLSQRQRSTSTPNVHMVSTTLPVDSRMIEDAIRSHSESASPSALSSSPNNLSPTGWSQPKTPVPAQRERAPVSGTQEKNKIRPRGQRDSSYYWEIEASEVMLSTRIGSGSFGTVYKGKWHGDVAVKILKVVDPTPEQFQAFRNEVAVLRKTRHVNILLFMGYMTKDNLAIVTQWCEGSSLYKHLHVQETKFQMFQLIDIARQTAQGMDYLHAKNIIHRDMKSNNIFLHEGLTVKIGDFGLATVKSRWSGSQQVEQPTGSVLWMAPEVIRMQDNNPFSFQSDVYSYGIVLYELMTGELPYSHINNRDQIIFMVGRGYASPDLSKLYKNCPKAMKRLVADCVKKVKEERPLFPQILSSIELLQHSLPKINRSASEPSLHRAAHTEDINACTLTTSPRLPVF
Tyrosine-protein kinase ABL2 (Homo sapiens), sequence (P42684 whole entry): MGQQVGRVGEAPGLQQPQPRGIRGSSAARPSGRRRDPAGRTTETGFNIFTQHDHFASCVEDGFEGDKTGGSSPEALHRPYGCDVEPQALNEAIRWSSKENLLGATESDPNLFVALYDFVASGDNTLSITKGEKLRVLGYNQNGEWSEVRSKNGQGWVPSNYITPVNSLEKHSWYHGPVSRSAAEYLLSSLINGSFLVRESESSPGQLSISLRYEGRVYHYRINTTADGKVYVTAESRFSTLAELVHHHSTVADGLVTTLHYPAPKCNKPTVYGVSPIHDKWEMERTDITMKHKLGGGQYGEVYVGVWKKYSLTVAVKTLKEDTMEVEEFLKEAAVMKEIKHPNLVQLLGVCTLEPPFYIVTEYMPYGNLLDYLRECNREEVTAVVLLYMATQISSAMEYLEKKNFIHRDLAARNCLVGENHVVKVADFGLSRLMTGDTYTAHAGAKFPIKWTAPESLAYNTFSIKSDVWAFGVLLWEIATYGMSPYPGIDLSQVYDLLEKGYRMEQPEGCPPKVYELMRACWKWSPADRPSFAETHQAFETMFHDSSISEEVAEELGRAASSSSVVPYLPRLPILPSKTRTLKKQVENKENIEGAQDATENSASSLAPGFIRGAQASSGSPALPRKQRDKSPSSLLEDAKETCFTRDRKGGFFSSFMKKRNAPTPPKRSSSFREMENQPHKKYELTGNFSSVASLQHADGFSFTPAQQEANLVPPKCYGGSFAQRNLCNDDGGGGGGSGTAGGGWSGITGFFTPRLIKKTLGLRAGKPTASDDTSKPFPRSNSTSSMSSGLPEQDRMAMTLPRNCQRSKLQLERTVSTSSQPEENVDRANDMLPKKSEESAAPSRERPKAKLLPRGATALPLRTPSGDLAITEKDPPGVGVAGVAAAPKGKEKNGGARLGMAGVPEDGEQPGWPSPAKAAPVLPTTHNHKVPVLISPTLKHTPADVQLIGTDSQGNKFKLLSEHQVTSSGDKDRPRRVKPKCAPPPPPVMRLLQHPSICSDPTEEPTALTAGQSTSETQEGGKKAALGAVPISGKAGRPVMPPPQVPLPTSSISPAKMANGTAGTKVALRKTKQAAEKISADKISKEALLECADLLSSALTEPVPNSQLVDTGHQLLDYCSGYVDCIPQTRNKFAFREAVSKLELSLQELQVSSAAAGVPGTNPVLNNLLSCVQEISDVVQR
Platelet-derived growth factor receptor beta (Homo sapiens), sequence (P09619 whole entry): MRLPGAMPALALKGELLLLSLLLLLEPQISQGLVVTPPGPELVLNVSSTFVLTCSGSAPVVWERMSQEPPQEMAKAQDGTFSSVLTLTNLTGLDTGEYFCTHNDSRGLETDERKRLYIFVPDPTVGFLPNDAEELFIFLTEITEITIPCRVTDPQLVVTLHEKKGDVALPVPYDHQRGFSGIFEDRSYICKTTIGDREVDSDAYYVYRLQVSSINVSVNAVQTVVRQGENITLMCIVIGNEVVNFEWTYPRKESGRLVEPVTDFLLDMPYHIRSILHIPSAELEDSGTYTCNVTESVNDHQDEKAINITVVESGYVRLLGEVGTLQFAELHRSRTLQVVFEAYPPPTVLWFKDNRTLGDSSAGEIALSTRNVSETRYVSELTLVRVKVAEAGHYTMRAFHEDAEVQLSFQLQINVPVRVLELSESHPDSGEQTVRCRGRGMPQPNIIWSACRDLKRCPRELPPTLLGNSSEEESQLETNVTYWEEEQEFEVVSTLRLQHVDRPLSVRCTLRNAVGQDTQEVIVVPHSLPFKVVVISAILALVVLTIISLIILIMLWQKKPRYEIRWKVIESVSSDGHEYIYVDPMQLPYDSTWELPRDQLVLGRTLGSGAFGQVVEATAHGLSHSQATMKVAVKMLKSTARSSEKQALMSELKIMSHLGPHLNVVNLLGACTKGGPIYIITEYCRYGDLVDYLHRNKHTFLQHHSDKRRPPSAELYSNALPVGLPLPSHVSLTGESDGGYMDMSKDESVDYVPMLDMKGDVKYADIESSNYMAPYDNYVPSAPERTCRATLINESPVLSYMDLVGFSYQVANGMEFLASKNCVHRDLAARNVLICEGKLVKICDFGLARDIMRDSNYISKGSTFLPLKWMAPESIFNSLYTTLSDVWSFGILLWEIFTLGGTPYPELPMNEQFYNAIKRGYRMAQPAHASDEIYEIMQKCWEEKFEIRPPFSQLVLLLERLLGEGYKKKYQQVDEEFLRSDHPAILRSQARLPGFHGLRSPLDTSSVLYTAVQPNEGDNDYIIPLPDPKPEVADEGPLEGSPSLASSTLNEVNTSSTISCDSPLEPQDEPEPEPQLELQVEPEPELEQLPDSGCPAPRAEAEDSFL
Serine/threonine-protein kinase B-raf, sequence (P15056 2-766 V600E limits assumed): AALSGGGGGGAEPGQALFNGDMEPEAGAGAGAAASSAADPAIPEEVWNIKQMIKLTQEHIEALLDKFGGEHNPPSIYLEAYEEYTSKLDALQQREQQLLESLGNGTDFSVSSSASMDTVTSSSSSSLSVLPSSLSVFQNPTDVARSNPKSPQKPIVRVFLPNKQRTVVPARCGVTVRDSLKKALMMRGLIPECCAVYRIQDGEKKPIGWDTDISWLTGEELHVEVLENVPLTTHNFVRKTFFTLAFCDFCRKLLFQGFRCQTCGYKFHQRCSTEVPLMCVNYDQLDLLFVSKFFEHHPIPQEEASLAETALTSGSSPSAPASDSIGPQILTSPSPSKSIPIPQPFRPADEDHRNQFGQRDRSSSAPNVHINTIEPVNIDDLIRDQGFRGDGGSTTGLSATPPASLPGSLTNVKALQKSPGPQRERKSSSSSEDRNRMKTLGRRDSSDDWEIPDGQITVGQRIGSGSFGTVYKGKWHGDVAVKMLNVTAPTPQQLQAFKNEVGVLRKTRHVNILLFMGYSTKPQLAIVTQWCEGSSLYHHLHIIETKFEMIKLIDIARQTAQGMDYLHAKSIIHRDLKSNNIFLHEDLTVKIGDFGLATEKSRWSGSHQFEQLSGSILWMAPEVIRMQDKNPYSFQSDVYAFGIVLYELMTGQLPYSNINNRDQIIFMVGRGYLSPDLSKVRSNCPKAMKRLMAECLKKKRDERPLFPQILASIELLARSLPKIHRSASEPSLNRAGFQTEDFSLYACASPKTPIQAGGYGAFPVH

For orientation: GI50 means the concentration giving 50% growth inhibition. `CNC(=O)c1ccc(O[C@H]2CC[C@H](NC(=O)Nc3ccc(Cl)c(C(F)(F)F)c3)CC2)cc1`: the concentration for 50% growth inhibition (GI50) in the assay with Huh-7 (Homo sapiens, Huh-7) was 16 µM; in the assay with HUVEC [1] it was above 25 µM; in the assay on HepG2 (Homo sapiens, HepG2) it was above 25 µM.
On to `CNC(=O)c1ccc(O[C@H]2CC[C@H](NC(=O)Nc3ccc(Cl)c(C(F)(F)F)c3)CC2)cn1`, for which the inhibition entry in assay [2] is “Active”. In addition, the GI50 in the assay on Huh-7 (Homo sapiens, Huh-7) is 8 µM; in the assay with HUVEC [1] it was 10.5 µM; in the assay with HepG2 (Homo sapiens, HepG2) it was 7 µM.
The term IC50 denotes the concentration needed to halve the response being measured. Consider `CN(C)C(=O)c1cc(O[C@H]2CC[C@H](NC(=O)Nc3ccc(Cl)c(C(F)(F)F)c3)CC2)ccn1`, for which the GI50 in the assay on Huh-7 (Homo sapiens, Huh-7) was found to be 8 µM; in the assay with HepG2 (Homo sapiens, HepG2), 10 µM. For the same compound, the IC50 is 0.0005 µM in assay [3] and above 10 µM in [4].
`CS(=O)(=O)N1CCC(NC(=O)Nc2ccc(OC(F)(F)F)cc2)CC1`: the GI50 in the assay on Huh-7 (Homo sapiens, Huh-7) was above 25 µM; in the assay on HUVEC [1], above 25 µM; with HepG2 (Homo sapiens, HepG2), above 25 µM. The IC50 in assay [4] was above 10 µM.
For `CNC(=O)c1cc(O[C@H]2CC[C@H](NC(=O)Nc3ccc(Cl)c(C(F)(F)F)c3)CC2)ccn1`, the inhibition entry in assay [2] is “Active”. Moreover, the GI50 with Huh-7 (Homo sapiens, Huh-7) was found to be 8 µM; in the assay on HUVEC [1], 11 µM; with HepG2 (Homo sapiens, HepG2), 7 µM.
On to `O=C(Nc1ccc(OC(F)(F)F)cc1)N[C@H]1CC[C@H](Oc2ccc(C(=O)O)cc2)CC1`, for which the inhibition result in [5], in assay [6], in [7], in assay [8], in [9] and in assay [11] was “inactive” throughout. The inhibition result in assay [12], in assay [13], in assay [14] and in assay [15] was “inactive” each time. For the same compound, the GI50 was 20 µM in the assay with Huh-7, above 25 µM in the assay on HUVEC [10] and 15 µM with HepG2.
In [16], `CNC(=O)c1cc(Oc2ccc(NC(=O)Nc3ccc(OC(F)(F)F)cc3)cc2)ccn1` gave an IC50 above 5 µM. Also, the inhibition result in assay [2] is “Active”. Also, the GI50 in the assay on Huh-7 (Homo sapiens, Huh-7) was 7 µM; with HUVEC [1] it was above 25 µM; in the assay with HepG2 (Homo sapiens, HepG2), 7 µM.
Take `CNC(=O)c1cccc(O[C@H]2CC[C@H](NC(=O)Nc3ccc(Cl)c(C(F)(F)F)c3)CC2)c1`: the GI50 with Huh-7 (Homo sapiens, Huh-7) worked out at 7.5 µM; with HUVEC [1] it was 11 µM; in the assay with HepG2 (Homo sapiens, HepG2), 6.5 µM. Further, the IC50 in assay [3] worked out at 0.001 µM; in [4] it was 0.293 µM.
Consider `CNC(=O)c1ccc(O[C@H]2CC[C@H](NC(=O)Nc3ccc(OC(F)(F)F)cc3)CC2)cc1`, for which the GI50 with Huh-7 (Homo sapiens, Huh-7) is 5.5 µM; with HUVEC [1], above 25 µM; in the assay on HepG2 (Homo sapiens, HepG2), 7 µM. Also, the IC50 in assay [4] was above 10 µM.
The matching figures for `CNC(=O)c1ccc(O[C@H]2CC[C@H](NC(=O)NC34CC5CC(CC(C5)C3)C4)CC2)cc1`: 5.5 µM, above 25 µM, 7 µM and above 10 µM.
As for `CNC(=O)c1cc(Oc2ccc(NC(=O)NC34CC5CC(CC(C5)C3)C4)cc2)ccn1`, the figures for the IC50 in [16] and in assay [4] were above 5 µM and 1 µM, respectively. The inhibition entry in [2] was “Active”. In addition, the GI50 in the assay on Huh-7 (Homo sapiens, Huh-7) came to 7 µM; in the assay on HUVEC [1] it was 25 µM; in the assay on HepG2 (Homo sapiens, HepG2), 10 µM.
In the case of `O=C(NC12CC3CC(CC(C3)C1)C2)N[C@H]1CC[C@H](Oc2ccc(C(=O)O)cc2)CC1`, the inhibition entry in assay [5], in [6], in [7], in [8], in assay [9] and in assay [12] was “inactive” each time. Moreover, the inhibition entry in [13], in [14] and in assay [15] was “inactive” each time.
Turning to `CNC(=O)c1cc(Oc2ccc(NC(=O)Nc3ccc(Cl)c(C(F)(F)F)c3)c(F)c2)ccn1` [REGORAFENIB], the IC50 in [3] was 0.0005 µM.
Regarding `CNC(=O)c1cc(O[C@H]2CC[C@H](NC(=O)Nc3ccc(OC(F)(F)F)cc3)CC2)ccn1`, the GI50 in the assay on Huh-7 (Homo sapiens, Huh-7) was 7 µM; with HUVEC [1], above 25 µM; in the assay on HepG2 (Homo sapiens, HepG2) it was 7 µM. Besides, in [4], the IC50 is above 10 µM.
For the compound `CNC(=O)c1cc(O[C@H]2CC[C@@H](NC(=O)Nc3ccc(Cl)c(C(F)(F)F)c3)CC2)ccn1`, the GI50 was 8.5 µM in the assay with Huh-7 (Homo sapiens, Huh-7); 10 µM with HUVEC [1]; 7.5 µM in the assay on HepG2 (Homo sapiens, HepG2).
Take `CCN(CC)CCNC(=O)c1c(C)[nH]c(/C=C2\C(=O)Nc3ccc(F)cc32)c1C` [SUNITINIB]: the IC50 in assay [3] was above 10 µM.
Consider `O=C(Nc1ccc(Cl)c(C(F)(F)F)c1)N[C@H]1CC[C@H](Oc2ccc(C(=O)O)cc2)CC1`, for which the GI50 in the assay on Huh-7 (Homo sapiens, Huh-7) was above 25 µM; with HUVEC [1] it was 25 µM; in the assay on HepG2 (Homo sapiens, HepG2) it was above 25 µM. Further, the IC50 in [3] came to 0.0005 µM; in assay [4] it was 4.3 µM.
For the compound `O=C(Nc1ccc(Cl)c(C(F)(F)F)c1)N[C@H]1CC[C@H](Oc2cccc(C(=O)O)c2)CC1`, the GI50 was above 25 µM in the assay on Huh-7 (Homo sapiens, Huh-7); 10.5 µM in the assay on HUVEC [1]; above 25 µM in the assay on HepG2 (Homo sapiens, HepG2). Moreover, the IC50 in [3] is 0.0086 µM; in [4], above 10 µM.
